Test results reported in patent US12180207B2 (ARRAY BIOPHARMA INC., priority 2018, dated 2024).

Tests used:
[1] = target: dephosphorylated FGFR1 (SEQ ID NO: 1, amino acids 458 to 765) (Homo sapiens (Human), UniProt P11362); experiment: FGFR enzyme binding assay (HTRF tracer displacement), FGFR1; conditions: 5 nM dephosphorylated FGFR1, average of multiple determinations if made
In short: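 Kinase and tracer were incubated with compound for 60 minutes at 22° C. Tracer displacement was then measured by HTRF, and results were expressed as POC with 1 μM control inhibitor defining full displacement.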

[2] = target: FGFR1 (SEQ ID NO: 1, amino acids 458-765) (Homo sapiens (Human), UniProt P11362); experiment: LC/MS FGFR1 kobs assay (covalent protein modification); format: binding; conditions: 500 nM FGFR1, 3 μM compound
Chain of FGFR1 (SEQ ID NO: 1, amino acids 458-765) (P11362 458-765): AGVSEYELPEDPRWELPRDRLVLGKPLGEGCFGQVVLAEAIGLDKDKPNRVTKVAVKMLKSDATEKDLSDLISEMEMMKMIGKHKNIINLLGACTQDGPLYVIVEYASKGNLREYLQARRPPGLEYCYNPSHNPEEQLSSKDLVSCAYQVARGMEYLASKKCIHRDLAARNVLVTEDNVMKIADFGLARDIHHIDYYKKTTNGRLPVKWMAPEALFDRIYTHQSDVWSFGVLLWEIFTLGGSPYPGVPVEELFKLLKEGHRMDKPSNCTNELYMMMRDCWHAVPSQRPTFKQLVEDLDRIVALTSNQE
In short: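 Covalent labeling of FGFR1 kinase domain (aa 458-765) tracked over time by intact-protein LC/MS after formic acid quench. kobs derived by fitting DMSO-normalized percent unmodified FGFR1 to an exponential decay model.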

[3] = target: FGFR3 (SEQ ID NO: 5, amino acids 449-759) (Homo sapiens (Human), UniProt P22607); experiment: LC/MS FGFR3 kobs assay (covalent protein modification); format: binding; conditions: 500 nM FGFR3, 3 μM compound
Chain of FGFR3 (SEQ ID NO: 5, amino acids 449-759) (P22607 449-759): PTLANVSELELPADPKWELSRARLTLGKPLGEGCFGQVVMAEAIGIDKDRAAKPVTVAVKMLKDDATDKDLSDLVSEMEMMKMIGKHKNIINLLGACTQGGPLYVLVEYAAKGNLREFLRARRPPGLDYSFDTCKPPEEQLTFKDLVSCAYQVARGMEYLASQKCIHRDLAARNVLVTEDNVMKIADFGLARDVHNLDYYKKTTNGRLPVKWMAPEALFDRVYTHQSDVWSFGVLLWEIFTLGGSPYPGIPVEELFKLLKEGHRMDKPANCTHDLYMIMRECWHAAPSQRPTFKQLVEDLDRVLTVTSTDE
In short: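 Each time-point sample was quenched in 0.4% formic acid and analyzed by Q-TOF LC/MS. Deconvoluted signals gave percent modified and unmodified protein, normalized to the DMSO control, and the decay of unmodified protein yielded kobs.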

[4] = target: recombinant human FGFR3 (amino acids R397-T806) (Homo sapiens (Human), UniProt P22607); experiment: FGFR3 enzyme activity assay (LanthaScreen TR-FRET); format: biochemical; conditions: 25 μM ATP, 10 min incubation at 22° C., average of multiple determinations if made, read-out: FGFR3 Enz FRET IC50
Chain of recombinant human FGFR3 (amino acids R397-T806) (P22607 397-806): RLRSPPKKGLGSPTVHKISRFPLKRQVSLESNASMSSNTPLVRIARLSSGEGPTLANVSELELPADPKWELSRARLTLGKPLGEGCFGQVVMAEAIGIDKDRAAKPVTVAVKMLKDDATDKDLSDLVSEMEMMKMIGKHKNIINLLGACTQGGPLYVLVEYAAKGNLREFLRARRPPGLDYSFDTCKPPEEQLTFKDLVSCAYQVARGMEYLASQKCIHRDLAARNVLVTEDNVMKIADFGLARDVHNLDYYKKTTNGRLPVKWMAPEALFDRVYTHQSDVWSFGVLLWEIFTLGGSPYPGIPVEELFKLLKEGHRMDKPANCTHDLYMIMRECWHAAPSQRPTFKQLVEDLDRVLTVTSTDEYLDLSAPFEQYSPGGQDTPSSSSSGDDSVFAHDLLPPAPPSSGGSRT
In short: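 GST-HIS6-tagged human FGFR3 (R397-T806) was reacted with 100 nM Alexa Fluor 647-Poly-GT substrate and 25 μM ATP plus compound in HEPES/MgCl2/Triton buffer, pH 7.5, 2% DMSO, for 10 min at 22 °C.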

Chain of dephosphorylated FGFR1 (SEQ ID NO: 1, amino acids 458 to 765) (P11362 458-765): as the sequence (P11362 458-765) above

Compound | IC50 [1] | FGFR1 Enz kobs [2] | FGFR3 Enz kobs [3] | IC50 [4]
C=CC(=O)N1CC2(CCN(C(=O)N3CCC(n4cc(-c5cc(OC)c6c(C#N)cnn6c5)cn4)CC3)CC2)C1 [Example 6, 6-(1-(1-(2-acryloyl-2,7-diazaspiro[3.5]nonane-7-carbonyl)piperidin-4-yl)-1H-pyrazol-4-yl)-4-methoxypyrazolo[1,5-a]pyridine-3-carbonitrile] | 157 nM | 0.00093 min⁻¹ | 0.00902 min⁻¹ | 4 nM
C=CC(=O)N1C[C@H]2CN(C(=O)N3CCC(n4cc(-c5cc(OC)c6c(C#N)cnn6c5)cn4)CC3)C[C@H]21 [Example 7, 6-(1-(1-((1S,5S)-6-acryloyl-3,6-diazabicyclo[3.2.0]heptane-3-carbonyl)piperidin-4-yl)-1H-pyrazol-4-yl)-4-methoxypyrazolo[1,5-a]pyridine-3-carbonitrile] | 52 nM | 0.00042 min⁻¹ | 0.00305 min⁻¹ | 2 nM
C=CC(=O)N1CC2(CCN(C(=O)N3CCC(n4cc(-c5cc(OC)c6c(C#N)cnn6c5)cn4)CC3)C2)C1 [Example 8, 6-(1-(1-(2-acryloyl-2,6-diazaspiro[3.4]octane-6-carbonyl)piperidin-4-yl)-1H-pyrazol-4-yl)-4-methoxypyrazolo[1,5-a]pyridine-3-carbonitrile] | 73 nM | 0.00124 min⁻¹ | 0.01122 min⁻¹ | 3 nM
C=CC(=O)Nc1ccc(CN2CCC(n3cc(-c4cc(OC)c5c(C#N)cnn5c4)cn3)CC2)cc1 [Example 9, N-(4-((4-(4-(3-cyano-4-methoxypyrazolo[1,5-a]pyridin-6-yl)-1H-pyrazol-1-yl)piperidin-1-yl)methyl)phenyl)acrylamide] | 56 nM | 0.0059 min⁻¹ | 0.02298 min⁻¹ | 4 nM
C=CC(=O)N(C)c1ccc(CN2CCC(n3cc(-c4cc(OC)c5c(C#N)cnn5c4)cn3)CC2)cc1 [Example 10, N-(4-((4-(4-(3-cyano-4-methoxypyrazolo[1,5-a]pyridin-6-yl)-1H-pyrazol-1-yl)piperidin-1-yl)methyl)phenyl)-N-methylacrylamide] | 56 nM | 0.0034 min⁻¹ | 0.01566 min⁻¹ | 6 nM
C=CC(=O)N1CCC(n2cc(-c3cc(OC)c4c(C#N)cnn4c3)cn2)CC1 [Example 11, 6-(1-(1-acryloylpiperidin-4-yl)-1H-pyrazol-4-yl)-4-methoxypyrazolo[1,5-a]pyridine-3-carbonitrile] | 210 nM | 0.0002 min⁻¹ | 0.00206 min⁻¹ | 7 nM
C=CC(=O)N1CCC(F)(C(=O)N2CCC(n3cc(-c4cc(OC)c5c(C#N)cnn5c4)cn3)CC2)CC1 [Example 13, 6-(1-(1-(1-acryloyl-4-fluoropiperidine-4-carbonyl)piperidin-4-yl)-1H-pyrazol-4-yl)-4-methoxypyrazolo[1,5-a]pyridine-3-carbonitrile] | 245 nM | 0.00056 min⁻¹ | 0.00418 min⁻¹ | 3 nM
C=CC(=O)N1CC(C(=O)N2CCC(n3cc(-c4cc(OC)c5c(C#N)cnn5c4)c(CC)n3)CC2)C1 [Example 97, 6-(1-(1-(1-acryloylazetidine-3-carbonyl)piperidin-4-yl)-3-ethyl-1H-pyrazol-4-yl)-4-methoxypyrazolo[1,5-a]pyridine-3-carbonitrile] | 572 nM | 0.00276 min⁻¹ | 0.01865 min⁻¹ | 72 nM
C=CC(=O)N1CC(C(=O)N2CCC(n3cnc(-c4cc(OC)c5c(C#N)cnn5c4)c3)CC2)C1 [Example 98, 6-(1-(1-(1-acryloylazetidine-3-carbonyl)piperidin-4-yl)-1H-imidazol-4-yl)-4-methoxypyrazolo[1,5-a]pyridine-3-carbonitrile] | 218 nM | 0.00167 min⁻¹ | 0.01995 min⁻¹ | 9 nM
C=CC(=O)N1CC(C(=O)N2CCC(c3ccc(-c4cc(OC)c5c(C#N)cnn5c4)cc3)CC2)C1 [Example 101, 6-(4-(1-(1-acryloylazetidine-3-carbonyl)piperidin-4-yl)phenyl)-4-methoxypyrazolo[1,5-a]pyridine-3-carbonitrile] | 42 nM | 0.00223 min⁻¹ | 0.01185 min⁻¹ | 4 nM
C=CC(=O)N1CC(C)(C(=O)N2CCC(n3cc(-c4cc(OC)c5c(Cl)cnn5c4)cn3)CC2)C1 [Example 123, 1-(3-(4-(4-(3-chloro-4-methoxypyrazolo[1,5-a]pyridin-6-yl)-1H-pyrazol-1-yl)piperidine-1-carbonyl)-3-methylazetidin-1-yl)prop-2-en-1-one] | 221 nM | 0.00126 min⁻¹ | 0.01169 min⁻¹ | 8 nM
C=CC(=O)N1CC(OC)(C(=O)N2CCC(n3cc(-c4cc(OC)c5c(Cl)cnn5c4)cn3)CC2)C1 [Example 124, 1-(3-(4-(4-(3-chloro-4-methoxypyrazolo[1,5-a]pyridin-6-yl)-1H-pyrazol-1-yl)piperidine-1-carbonyl)-3-methoxyazetidin-1-yl)prop-2-en-1-one] | 119 nM | 0.00241 min⁻¹ | 0.02484 min⁻¹ | 8 nM
C=CC(=O)N1CC(C(=O)N2CCC(n3cc(-c4cc(OC5CCC5)c5c(C#N)cnn5c4)cn3)CC2)C1 [Example 125, 6-(1-(1-(1-acryloylazetidine-3-carbonyl)piperidin-4-yl)-1H-pyrazol-4-yl)-4-cyclobutoxypyrazolo[1,5-a]pyridine-3-carbonitrile] | 13 nM | 0.00246 min⁻¹ | 0.01842 min⁻¹ | 3 nM
C=CC(=O)N1CC(C(=O)N2CCC(n3cc(-c4cc(OCC)c5c(C#N)cnn5c4)cn3)CC2)C1 [Example 126, 6-(1-(1-(1-acryloylazetidine-3-carbonyl)piperidin-4-yl)-1H-pyrazol-4-yl)-4-ethoxypyrazolo[1,5-a]pyridine-3-carbonitrile] | 147 nM | 0.0028 min⁻¹ | 0.01992 min⁻¹ | 5 nM
C=CC(=O)N1CC(C(=O)N2CCC(n3cc(-c4cc(OC(C)C)c5c(C#N)cnn5c4)cn3)CC2)C1 [Example 127, 6-(1-(1-(1-acryloylazetidine-3-carbonyl)piperidin-4-yl)-1H-pyrazol-4-yl)-4-isopropoxypyrazolo[1,5-a]pyridine-3-carbonitrile] | 59 nM | 0.00133 min⁻¹ | 0.01654 min⁻¹ | 3 nM
C=CC(=O)N1CC(C(=O)N2CCC(n3cc(-c4cc(OCC(C)C)c5c(C#N)cnn5c4)cn3)CC2)C1 [Example 128, 6-(1-(1-(1-acryloylazetidine-3-carbonyl)piperidin-4-yl)-1H-pyrazol-4-yl)-4-isobutoxypyrazolo[1,5-a]pyridine-3-carbonitrile] | 38 nM | 0.00134 min⁻¹ | 0.01702 min⁻¹ | 3 nM
